Structure (SMILES) | melting point
CCOC(=O)c1cnc(N(Cc2cc(Br)ccc2OCc2ccccc2)C(=O)OC(C)(C)C)cn1 | 116 to 117 °C
CNCCCn1cc2c(C3C(=O)Nc4ccc(Br)cc43)ncnc2n1 (stereo not drawn) | 240 to 243 °C
COc1ccc(-c2cnc3cc4cnn(C[C@@H]5COC(C)(C)O5)c4cc3n2)cc1F | 145 to 151 °C
CN1CCN(c2cc(NC(=O)OC(C)(C)C)c(N)cc2C#Cc2ccccc2)CC1 | 81 to 85 °C
CCOC(=O)c1cn2c3c(c(-c4ccc(S(N)(=O)=O)cc4)c(F)cc3c1=O)OCC2C (stereo not drawn) | > 250 °C
O=C(O)c1ccc2c(c1)S(=O)(=O)c1ccc(Cl)cc1C2=O | 352 to 355 °C
CSc1cn(C)c2c(-c3ccccc3)csc2c1=O | 204 to 206 °C
Cc1cccc(C)c1NC(=O)c1ccc(NC(=O)CN(C)C)cc1 | 276 to 278 °C
COc1ccccc1CNc1cccc(-c2ccnc3c(C(=O)c4cccs4)cnn23)c1 | 138 to 140 °C
CCOC(=O)N1c2cc(OC)c(OC)cc2C(=O)C(=CN(C)C)C1C (stereo not drawn) | 130 to 131 °C
COc1cc(-c2csc(C)n2)cc2oc(=O)c(C)c(C)c12 | 149 to 150 °C
Cn1c(C(F)(F)F)c(Cl)c(=O)n(-c2ccc(Cl)c3nc(C(C)(C)C)oc23)c1=O | 83 to 86 °C
CCN(CC)S(=O)(=O)c1cc2c(c(C(=O)O)c1)OCCO2 | 149 °C
O=C1NC(=O)C(Nc2ccc(Br)c3ccccc23)S1 (stereo not drawn) | 199 to 200 °C
CCNC(=O)c1c(Cl)cccc1[Si](C)(C)c1ccccc1 | 89 to 91 °C
CC(C)=CCCN1C(=O)c2ccccc2C1=O | 95 to 97 °C
O=C1N(N(c2ccccc2)c2ccccc2)c2ccccc2C1(Cc1ccnc(F)c1)Cc1ccnc(F)c1 | 179 to 180 °C
CCCN(CCCc1c[nH]c2ccc(OC)cc12)C1COc2c(F)ccc(C(N)=O)c2C1 (stereo not drawn) | 145 to 152 °C
O=C(O)Cc1cccc(OCCCN(Cc2cccc(F)c2F)CC(c2ccccc2)c2ccccc2)c1 | 148 °C
CNn1cc(C(=O)O)c(=O)c2cc(F)c(F)c(F)c21 | 237 to 238 °C
Clc1ccc2c(c1)N(c1ncnc3cnccc13)CC2 | 194 to 196 °C
COc1ccc(-c2c(Br)c(CN3C(=O)CCC3=O)nc3sc4c(c23)CCN(Cc2ccccc2)C4)cc1 | 255 to 256 °C
O=Cc1c[nH]c2ncc(-c3cccc(N4CCN(C(=O)C5CCNCC5)CC4)c3)nc12 | > 300 °C
CCC(C)Oc1nc(N)nc2c1ncn2C1C=CC(CO)C1 (stereo not drawn) | 159 to 161 °C
C#CCNC(=O)c1cc(C(=O)OC)c(O)c2ncc(Cc3ccc(F)cc3)cc12 | 192 to 193 °C

Structure (SMILES) | melting point
CC(C)c1nnn(-c2c(Cl)cccc2Cl)c1COc1ccc(N(C)C(=O)c2ccc(C(=O)O)cc2)c(C(F)(F)F)n1 | 218 to 219 °C
CCC(SC(C)=O)C(=O)NC(C)=O (stereo not drawn) | 59 to 60 °C
O=C(CCCCCBr)c1ccccc1 | 35 to 36 °C
CC(Oc1cc2sc(NC(=O)NCCN3CCOCC3)nc2cc1Cl)c1c(Cl)ccc(F)c1Cl (stereo not drawn) | 196 to 198 °C
Cc1[nH]c(C(=O)N2CCN(c3ccccc3)CC2)c(C)c1-c1nc2ccc(C(=O)c3ccccc3)cc2[nH]1 | 145 to 147 °C
CC1(C)OC(=S)Nc2ccc(-c3ccc(C#N)s3)cc21 | 242 to 244 °C
CCCOc1ccc(C(=O)CCC(=O)O)cc1 | 116 to 117 °C
c1ccc(N2CC3CCC(C2)O3)cc1 | 84 to 85 °C
COCCN(CCOC)c1ccc(P(=O)(C(=O)c2c(C)cc(C)cc2C)C(=O)c2c(C)cc(C)cc2C)cc1 | 103 to 106 °C
Cc1cc(-c2cc(Cl)ccc2Cl)n2ncc(C#N)c2n1 | 229 to 230 °C
COc1ccc(OC)c2c1c(C(=O)C(=O)NC1=CC(=O)OC1)cn2Cc1ccc(Cl)cc1 | 212 to 215 °C
Cc1cccc2c(-c3ccc(F)cc3)nccc12 | 91 to 92 °C
Cc1[nH]c(=O)c2c(N)c([N+](=O)[O-])ccc2c1C | > 300 °C
O=C1c2cccc(NC(=S)Nc3ncccc3Br)c2C2CCCCN12 (stereo not drawn) | 180 °C
CC(=O)SCC(Cc1ccccc1)C(=O)NC(CCCNC(=N)N)C(=O)O (stereo not drawn) | 253 to 295 °C
COc1cc2c(cc1OC)C1(CNC(=O)C1)CC2=O (stereo not drawn) | 193 to 195 °C
C=Cc1ccc2ccccc2c1-c1ccc(O)c(OC)c1 | 83 to 86 °C
Oc1ccc2c(c1)COc1c-2cc2ccc(O)cc2c1-c1ccncc1 | > 250 °C
O=c1[nH]c(=O)n(C2CC(F)C(COC(c3ccccc3)(c3ccccc3)c3ccccc3)O2)cc1C(I)=CI (stereo not drawn) | 58 °C
CCc1sc2nc(C(=O)OC)cn2c1C | 94 to 95 °C
N#Cc1ccc(C(=O)N2CCN(C(=O)C3CCN(c4ccncn4)CC3)CC2)cc1 | 192 to 193 °C
Cc1ccc(N)cc1Nc1ncc(-c2cccnc2)o1 | 166 °C
CC(C)C(C(N)=S)N(C)C(=O)OCc1ccccc1 (stereo not drawn) | 130 °C
O=S(Cc1cccs1)c1ncc(Br)cn1 (stereo not drawn) | 108 to 109 °C
O=c1oc(/C=C/c2ccccc2)ns1 | 105 to 106 °C

Structure (SMILES) | melting point
CCN(CC)CC1CCCCN1CCNC(=O)N1c2ccccc2C(=O)Nc2cccnc21 (stereo not drawn) | 175 to 176 °C
Oc1ccc2c(c1)C13CCN(CC4CC4)C(C2)C1OCOC3 (stereo not drawn) | 193 to 196 °C
COc1ccc(-c2cn(C)cc(-c3cccc(C(F)(F)F)c3)c2=O)cc1 | 160 to 162 °C
CC(=O)SCCC(=O)CCC(=O)O | 72 to 74 °C
CCCCNCC1CCn2c(nc3ccccc32)S1 (stereo not drawn) | 122 to 124 °C
COc1cc(-c2cnc3[nH]cc(C(=O)CC(C)C)c3n2)cc(OC)c1OC | 210 to 211 °C
Nc1c([N+](=O)[O-])cc(F)c(Cl)c1F | 96 to 97 °C
CCc1c(C(=O)c2cccc(Cl)c2Cl)c2cccc(Br)c2n1CCCN(C)S(C)(=O)=O | 111 °C
CCCOc1ccc(COCCO)cc1-c1nc2c(CCC)nn(C)c2c(=O)[nH]1 | 101 to 102 °C
O=C(CCC(=O)N[C@@H]1CCc2ccccc21)N[C@@H]1CCc2ccccc21 | 266 to 269 °C
C=Cc1cccc2c1-c1ccc3c(c1C(C1(C)CC=CCC1)O2)C(C)=CC(C)(C)N3 (stereo not drawn) | 198 to 201 °C
COc1ccc(COC(=O)C(N)CCCCNC(=O)OC(C)(C)C)cc1 (stereo not drawn) | 118 to 120 °C
CCOC(=O)C1(C)ON=C(C2(C)CC(c3ccc(OC)c(OC4CCCC4)c3)=NO2)O1 (stereo not drawn) | 139 to 140 °C
Nc1c(S(=O)(=O)C(F)(F)F)c(-c2ncon2)nn1-c1c(Cl)cc(C(F)(F)F)cc1Cl | 205 to 208 °C
CC(C)(CO)CCCCCCCCCC(C)(C)CO | 52 to 54 °C
O=C1NC(=O)c2cc(C(c3ccc4c(c3)C(=O)NC4=O)(C(F)(F)F)C(F)(F)F)ccc21 | 322 °C
Cc1cc(C)c2c(c1C)OC(C)(C)C2 | 47 °C
CC1=C(C(=O)OCCOC(C)C)C(c2cccc(Cl)c2Cl)C(c2nnco2)=C(C)N1 (stereo not drawn) | 151 to 154 °C
CN1CCC(=C2c3ccccc3CC(=O)c3ccccc32)CC1 | 138 to 140 °C
CC[C@H]1[C@H](O)CC(=O)N1c1ccc(C#N)c(OC)c1 | 138 to 141 °C
CC(C)c1ccc(C2(OC(=O)N(C)C)C(=O)c3ccccc3C2=O)c(OC(=O)N(C)C)c1 | 203 to 205 °C
Cc1c(Br)c2c(c3c1C(c1ccc(C(C)C)cc1)CO3)CCC2 (stereo not drawn) | 127 to 128 °C
CCSc1cc2ncc(C#N)c(Nc3cc(OC)c(Cl)cc3Cl)c2cc1OC | 212 to 214 °C
CC1(C)CC(SCc2c(C(F)(F)F)nn(C(F)F)c2Cl)=NO1 | 41 to 42 °C
CCOc1ccc(F)cc1NC(=O)Nc1ccc(N2CCN(C(=O)OC(C)(C)C)CC2)cc1 | 168 to 169 °C

Structure (SMILES) | melting point
CC(C)(O)C(=O)c1ccc(OCC(=O)O)cc1 | 131 to 134 °C
COC(=O)c1ccc(OCCNC(=O)C2Cc3ccccc3N2S(=O)(=O)c2ccc(-c3ccc(F)cc3OC)cc2)cc1F (stereo not drawn) | 73 to 80 °C
CN(C)C(=S)Oc1ccc(C(F)(F)F)cc1C(=O)c1ccc(C#N)cc1 | 142 °C
Cc1ccc(CC(O)(P(=O)(O)O)P(=O)(O)O)cc1 | 211 to 213 °C
CCOc1ccc(-c2nc3n(c2-c2ccc(OCC)cc2)CCC3)cc1 | 135 to 138 °C
CCOC(=O)c1[nH]c2c(NS(=O)(=O)c3cccs3)cccc2c1C | 198 to 199 °C
OC1CSC(Oc2ccc(Cl)nc2)C(O)C1O (stereo not drawn) | 218 °C
CC(C)CC(=O)Oc1n[nH]c(=O)c2nc3cc(Cl)ccc3c(O)c12 | > 400 °C
CCOC(=O)c1cn(Cc2ccc(Oc3ccccc3)cc2)nc1OCc1nc(-c2ccccc2)oc1C | 96 to 97 °C
CC1=NN(C)C(=O)C1(Br)C(=O)c1ccc(Cl)cc1Cl (stereo not drawn) | 89 to 90 °C
O=S1c2ccccc2C(CCCl)(CCCl)c2ccccc21 | 126 to 127 °C
COC(=O)c1c(C)nn2c(-c3cccc(C(F)(F)F)c3)ccnc12 | 177 to 179 °C
CS(=O)(=O)c1ccc(-c2c(-c3ccccc3)nc3sccn23)cc1 | 190 to 192 °C
COc1ccc2c(c1)S(=O)(=O)C(C(=O)Nc1ccc(Cl)c(Cl)c1)C(=O)N2C (stereo not drawn) | 230 to 233 °C
CCOc1ccc(OCc2cccc(OCc3nc(-c4ccccc4)oc3C)c2)cc1CCC(=O)O | 136 to 137 °C
CCOC(=O)C1=C(C2CC2)Nc2n[nH]cc2C1c1ccccc1Br (stereo not drawn) | 168 to 170 °C
O=C(C1CCCC1)N1C=C2c3ccccc3C3CC2(C1)c1ccccc13 (stereo not drawn) | 185 to 186 °C
O=c1oc2ccc(Cc3ccccc3)cc2c(O)c1CCCOc1ccccc1 | 149 to 150 °C
C/C(=N\O)[C@H]1CC[C@H]2[C@@H]3CCC4=CC(=O)CC[C@]4(C)[C@H]3CC[C@]12C | 220 to 221 °C
COc1cc(C(=O)NS(=O)(=O)c2ccccc2C)ccc1Cc1cccc2ccc(C(N)=O)cc12 | 255 to 256 °C
CCCc1cccc2c(/C=C(\C)C(=O)O)cc(OC)c(O)c12 | 67 to 68 °C
c1ccc(-c2ccc3oc(COc4ccc(CCCn5ccnc5)cc4)nc3c2)cc1 | 123 to 124 °C
O=C(Nc1cccc(C(F)(F)F)c1)c1ccc([N+](=O)[O-])cc1 | 210 °C
